Key:
TadNaC2 = target: T1, TadNaC2 (Trichoplax adhaerens, UniProt A0A5J6BSS6); assay: whole-cell patch clamp, CHO-K1, amiloride dose-response of peak inward current; assay type: cell-based
T1 construct: gene ASIC2; full-length cDNA cloned from whole-animal RNA, untagged in pIRES2-EGFP (pTadNaC2-IR-EGFP), CHO-K1 cells; homotrimer modelled; residues F70, T72, D75, E77, H80, E104, E105, H109, W165, F188, L198, R201, K203, S228, P229, W276, L332, S336, D413
T1 sequence (A0A5J6BSS6 1-548): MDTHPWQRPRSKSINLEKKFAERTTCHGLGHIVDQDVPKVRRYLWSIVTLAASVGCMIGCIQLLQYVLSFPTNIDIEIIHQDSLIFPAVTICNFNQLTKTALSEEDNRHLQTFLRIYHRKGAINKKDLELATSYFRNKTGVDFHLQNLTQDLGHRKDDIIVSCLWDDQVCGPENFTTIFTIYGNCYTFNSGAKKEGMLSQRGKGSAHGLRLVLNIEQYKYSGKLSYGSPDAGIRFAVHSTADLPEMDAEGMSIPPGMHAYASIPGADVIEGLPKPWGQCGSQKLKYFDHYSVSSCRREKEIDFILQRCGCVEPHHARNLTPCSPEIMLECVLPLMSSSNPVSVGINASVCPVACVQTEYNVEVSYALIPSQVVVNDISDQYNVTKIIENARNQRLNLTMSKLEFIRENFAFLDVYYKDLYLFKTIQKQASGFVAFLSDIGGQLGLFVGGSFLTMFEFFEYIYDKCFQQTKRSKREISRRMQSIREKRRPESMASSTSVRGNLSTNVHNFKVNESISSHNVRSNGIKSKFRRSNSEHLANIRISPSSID

mouse ASIC1a (mASIC1a) = target: T2, mouse ASIC1a (mASIC1a) (Mus musculus, UniProt Q6NXK8); assay: whole-cell patch clamp, CHO-K1, single-dose block of peak inward current; assay type: cell-based; conditions: read-out: % block at 3 mM
T2 construct: gene Asic1; synthetic full-length subunit, untagged in pIRES2-EGFP (pmASIC1-IR-EGFP), CHO-K1 cells; homotrimer
T2 sequence (Q6NXK8 1-526): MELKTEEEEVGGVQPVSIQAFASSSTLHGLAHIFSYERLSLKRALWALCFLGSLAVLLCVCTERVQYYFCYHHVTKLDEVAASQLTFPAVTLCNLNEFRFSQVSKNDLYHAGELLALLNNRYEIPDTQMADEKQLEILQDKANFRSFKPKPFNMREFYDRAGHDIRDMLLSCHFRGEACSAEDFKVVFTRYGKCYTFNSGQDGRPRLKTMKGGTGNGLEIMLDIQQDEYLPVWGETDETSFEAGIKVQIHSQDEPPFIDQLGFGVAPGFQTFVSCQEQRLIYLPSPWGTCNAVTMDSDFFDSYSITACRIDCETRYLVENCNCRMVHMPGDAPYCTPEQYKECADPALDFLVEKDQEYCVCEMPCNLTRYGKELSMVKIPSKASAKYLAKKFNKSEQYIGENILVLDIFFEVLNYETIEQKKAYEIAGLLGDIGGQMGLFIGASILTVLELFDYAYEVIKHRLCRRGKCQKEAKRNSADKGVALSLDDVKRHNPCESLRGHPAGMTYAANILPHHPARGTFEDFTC

## N=C(N)NC(=O)c1nc(Cl)c(N)nc1N [amiloride]
TadNaC2
  IC50: 52 ± 29.6 µM
Mouse ASIC1a (mASIC1a)
  inhibition at 3000 µM: 73 ± 4.1%
